Assays:
corn = test: Test B pre/postemergence corn; assay type: in vivo, Zea mays
How it was run: (§1)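 Response is a visual 0-to-10 score relative to untreated plants, where 0 means no effect and 10 means complete control, taken twelve to sixteen days after application. Treatments went onto soil at planting and onto foliage of 1- to 4-leaf plants, using a surfactant-containing non-phytotoxic solvent.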

wild oat = test: Test B pre/postemergence wild oat; assay type: in vivo, Avena fatua
How it was run: as §1

rape = test: Test B pre/postemergence rape; assay type: in vivo, Brassica napus
How it was run: as §1

sugar beet = test: Test B pre/postemergence sugar beet; assay type: in vivo, Beta vulgaris
How it was run: as §1

morningglory = test: Test B pre/postemergence morningglory; assay type: in vivo, Ipomoea hederacea
How it was run: as §1

soybean = test: Test B pre/postemergence soybean; assay type: in vivo, Glycine max
How it was run: as §1

bedstraw = test: Test B pre/postemergence bedstraw; assay type: in vivo, Galium aparine
How it was run: as §1

crabgrass = test: Test B pre/postemergence crabgrass; assay type: in vivo, Digitaria sanguinalis
How it was run: as §1

cocklebur = test: Test B pre/postemergence cocklebur; assay type: in vivo, Xanthium strumarium
How it was run: as §1

purple nutsedge = test: Test B pre/postemergence purple nutsedge; assay type: in vivo, Cyperus rotundus
How it was run: as §1

blackgrass = test: Test B pre/postemergence blackgrass; assay type: in vivo, Alopecurus myosuroides
How it was run: as §1

surinam grass = test: Test B pre/postemergence surinam grass; assay type: in vivo, Brachiaria decumbens
How it was run: as §1

wheat = test: Test B pre/postemergence wheat; assay type: in vivo, Triticum aestivum
How it was run: as §1

pigweed = test: Test B pre/postemergence pigweed; assay type: in vivo, Amaranthus retroflexus
How it was run: as §1

velvetleaf = test: Test B pre/postemergence velvetleaf; assay type: in vivo, Abutilon theophrasti
How it was run: as §1

giant foxtail = test: Test B pre/postemergence giant foxtail; assay type: in vivo, Setaria faberii
How it was run: as §1

[1] = Postemergence, Rate 62 g/ha, scale 0 to 10, 0 is no effect, 10 is complete control
[2] = Postemergence, Rate 125 g/ha, scale of 0 to 10 where 0 is no effect and 10 is complete control
[3] = Postemergence, Rate 500 g/ha, scale 0 (no effect) to 10 (complete control)
[4] = Preemergence, Rate 250 g/ha, scale 0 (no effect) to 10 (complete control)
[5] = Rate 62 g/ha, Preemergence, scale 0 to 10
[6] = Rate 125 g/ha, Preemergence, scale 0 to 10 (0 no effect, 10 complete control)
[7] = Rate 250 g/ha, Postemergence, scale 0 to 10, 0 is no effect, 10 is complete control
[8] = Rate 500 g/ha, Preemergence, scale 0 to 10 (0 no effect, 10 complete control)

SMILES: C#CC(C)n1c(=O)on(C(=O)N(c2ccc(F)cc2)C(C)C)c1=O (stereo not shown) [Compound 763]
- Plant response rating, Corn (corn; [1]): 0
- Corn plant response rating (corn; [2]): 0
- Corn plant response rating (corn; [3]): 2
- Corn plant response rating (corn; [4]): 0
- Corn plant response rating (corn; [5]): 0
- Corn plant response rating (corn; [6]): 0
- Corn plant response rating (corn; [7]): 0
- Corn plant response rating (corn; [8]): 0
- Plant response rating, Wild oats (wild oat; [1]): 0
- Wild oats plant response rating (wild oat; [3]): 1
- Wild oats plant response rating (wild oat; [4]): 9
- Wild oats plant response rating (wild oat; [5]): 2
- Wild oats plant response rating (wild oat; [6]): 8
- Wild oats plant response rating (wild oat; [8]): 9
- Plant response rating, Rape (rape; [1]): 0
- Rape plant response rating (rape; [2]): 0
- Rape plant response rating (rape; [3]): 3
- Rape plant response rating (rape; [4]): 6
- Rape plant response rating (rape; [5]): 0
- Rape plant response rating (rape; [6]): 5
- Rape plant response rating (rape; [7]): 0
- Rape plant response rating (rape; [8]): 9
- Plant response rating, Sugarbeets (sugar beet; [1]): 0
- Sugarbeets plant response rating (sugar beet; [3]): 4
- Sugarbeets plant response rating (sugar beet; [4]): 3
- Sugarbeets plant response rating (sugar beet; [5]): 0
- Sugarbeets plant response rating (sugar beet; [6]): 0
- Sugarbeets plant response rating (sugar beet; [7]): 2
- Sugarbeets plant response rating (sugar beet; [8]): 6
- Plant response rating, Morningglory (morningglory; [1]): 2
- Morningglory plant response rating (morningglory; [2]): 7
- Morningglory plant response rating (morningglory; [3]): 7
- Morningglory plant response rating (morningglory; [4]): 0
- Morningglory plant response rating (morningglory; [5]): 0
- Morningglory plant response rating (morningglory; [6]): 0
- Morningglory plant response rating (morningglory; [7]): 7
- Morningglory plant response rating (morningglory; [8]): 5
- Plant response rating, Soybean (soybean; [1]): 2
- Soybean plant response rating (soybean; [3]): 5
- Soybean plant response rating (soybean; [4]): 0
- Soybean plant response rating (soybean; [5]): 0
- Soybean plant response rating (soybean; [6]): 0
- Soybean plant response rating (soybean; [7]): 3
- Soybean plant response rating (soybean; [8]): 0
- Bedstraw plant response rating (bedstraw; [2]): 0
- Bedstraw plant response rating (bedstraw; [3]): 4
- Bedstraw plant response rating (bedstraw; [4]): 7
- Bedstraw plant response rating (bedstraw; [5]): 0
- Bedstraw plant response rating (bedstraw; [6]): 6
- Bedstraw plant response rating (bedstraw; [8]): 8
- Plant response rating, Crabgrass (crabgrass; [1]): 2
- Crabgrass plant response rating (crabgrass; [2]): 5
- Crabgrass plant response rating (crabgrass; [3]): 9
- Crabgrass plant response rating (crabgrass; [4]): 10
- Crabgrass plant response rating (crabgrass; [5]): 9
- Crabgrass plant response rating (crabgrass; [6]): 9
- Crabgrass plant response rating (crabgrass; [7]): 8
- Crabgrass plant response rating (crabgrass; [8]): 9
- Plant response rating, Cocklebur (cocklebur; [1]): 0
- Cocklebur plant response rating (cocklebur; [2]): 0
- Cocklebur plant response rating (cocklebur; [3]): 3
- Cocklebur plant response rating (cocklebur; [4]): 0
- Cocklebur plant response rating (cocklebur; [5]): 0
- Cocklebur plant response rating (cocklebur; [6]): 0
- Cocklebur plant response rating (cocklebur; [7]): 1
- Cocklebur plant response rating (cocklebur; [8]): 0
- Plant response rating, Nutsedge (purple nutsedge; [1]): 0
- Nutsedge plant response rating (purple nutsedge; [2]): 0
- Nutsedge plant response rating (purple nutsedge; [3]): 6
- Nutsedge plant response rating (purple nutsedge; [5]): 0
- Nutsedge plant response rating (purple nutsedge; [7]): 3
- Nutsedge plant response rating (purple nutsedge; [8]): 5
- Plant response rating, Blackgrass (blackgrass; [1]): 5
- Blackgrass plant response rating (blackgrass; [2]): 5
- Blackgrass plant response rating (blackgrass; [3]): 5
- Blackgrass plant response rating (blackgrass; [4]): 9
- Blackgrass plant response rating (blackgrass; [5]): 8
- Blackgrass plant response rating (blackgrass; [6]): 9
- Blackgrass plant response rating (blackgrass; [7]): 5
- Blackgrass plant response rating (blackgrass; [8]): 10
- Plant response rating, B. signalgrass (surinam grass; [1]): 0
- B. signalgrass plant response rating (surinam grass; [2]): 3
- B. signalgrass plant response rating (surinam grass; Preemergence, Rate 62 g/ha, scale of 0 to 10 where 0 is no effect and 10 is complete control): 0
- B. signalgrass plant response rating (surinam grass; [4]): 9
- B. signalgrass plant response rating (surinam grass; [6]): 9
- B. signalgrass plant response rating (surinam grass; [7]): 5
- B. signalgrass plant response rating (surinam grass; Rate 500 g/ha, Postemergence, scale 0 to 10, 0 is no effect, 10 is complete control): 5
- B. signalgrass plant response rating (surinam grass; [8]): 8
- Plant response rating, Wheat (wheat; [1]): 0
- Wheat plant response rating (wheat; [3]): 3
- Wheat plant response rating (wheat; [4]): 5
- Wheat plant response rating (wheat; [5]): 0
- Wheat plant response rating (wheat; [6]): 0
- Wheat plant response rating (wheat; [7]): 4
- Wheat plant response rating (wheat; [8]): 7
- Plant response rating, Redroot pigweed (pigweed; [1]): 0
- Redroot pigweed plant response rating (pigweed; [2]): 0
- Redroot pigweed plant response rating (pigweed; [3]): 8
- Redroot pigweed plant response rating (pigweed; [4]): 10
- Redroot pigweed plant response rating (pigweed; [5]): 8
- Redroot pigweed plant response rating (pigweed; [6]): 9
- Redroot pigweed plant response rating (pigweed; [7]): 3
- Redroot pigweed plant response rating (pigweed; [8]): 10
- Plant response rating, Velvetleaf (velvetleaf; [1]): 0
- Velvetleaf plant response rating (velvetleaf; [3]): 2
- Velvetleaf plant response rating (velvetleaf; [4]): 1
- Velvetleaf plant response rating (velvetleaf; [5]): 0
- Velvetleaf plant response rating (velvetleaf; [6]): 1
- Velvetleaf plant response rating (velvetleaf; [7]): 0
- Velvetleaf plant response rating (velvetleaf; [8]): 3
- Plant response rating, Giant foxtail (giant foxtail; [1]): 6
- Giant foxtail plant response rating (giant foxtail; [2]): 8
- Giant foxtail plant response rating (giant foxtail; [3]): 9
- Giant foxtail plant response rating (giant foxtail; [4]): 9
- Giant foxtail plant response rating (giant foxtail; [5]): 9
- Giant foxtail plant response rating (giant foxtail; [6]): 9
- Giant foxtail plant response rating (giant foxtail; [7]): 9
- Giant foxtail plant response rating (giant foxtail; [8]): 9
